From patent publication US20110020801A1, “Carboxylesterase-1 Polymorphisms and Methods of Use Therefor” (priority 2007, published 2011)
Where a chain is given by its changes, count along the chain named. Where “and” joins values, the source holds several entries; their conditions need not be identical. Equal values may be shown once.

How the values were obtained:
WT CES1 [1] = biological target: T1, WT CES1 (Homo sapiens, UniProt P23141); experiment: MPH hydrolysis to ritalinic acid by S9 of cells expressing WT CES1 (HPLC); format: biochemical; details: S9 0.5 mg/mL, 37° C., 2 hours, mean ± S.D. (n = 3)
T1 construct: inserting a stop codon after CES1A1 gene to yield the constructs expressing CES1 without V5-His tag; expressed in transfected cells
T1 sequence (P23141 18-567): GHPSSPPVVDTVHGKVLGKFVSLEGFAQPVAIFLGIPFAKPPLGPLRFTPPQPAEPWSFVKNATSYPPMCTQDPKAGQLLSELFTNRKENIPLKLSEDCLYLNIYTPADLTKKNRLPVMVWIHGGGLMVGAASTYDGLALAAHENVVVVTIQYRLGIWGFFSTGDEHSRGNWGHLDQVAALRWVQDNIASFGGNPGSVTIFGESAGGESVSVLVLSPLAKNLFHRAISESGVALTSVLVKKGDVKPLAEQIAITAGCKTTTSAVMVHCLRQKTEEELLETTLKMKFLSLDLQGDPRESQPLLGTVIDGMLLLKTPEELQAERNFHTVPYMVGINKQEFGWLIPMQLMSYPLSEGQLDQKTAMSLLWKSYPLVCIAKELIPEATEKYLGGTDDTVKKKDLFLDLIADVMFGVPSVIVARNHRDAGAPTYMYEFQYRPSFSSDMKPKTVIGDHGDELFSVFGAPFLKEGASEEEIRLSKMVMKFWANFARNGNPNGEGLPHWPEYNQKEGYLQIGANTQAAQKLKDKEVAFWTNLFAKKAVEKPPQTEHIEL
Description: (§1) The desired plasmid was designed such that the recombinant CES1 would be expressed in mammalian cells with a V5-His tag to facilitate detection and purification. Additionally, another plasmid was generated by inserting a stop codon after CES1A1 gene to yield the constructs expressing CES1 without V5-His tag. […] Thus, only untagged CES1 and its associated mutants were used in the enzymatic hydrolysis study. Two constructs of CES1 mutations, p.Gly143Glu and p.Asp260fs, were generated using a site-directed mutagenesis assay. All constructs were subjected to DNA sequencing analysis to confirm that the desired plasmids were obtained. The identified CES1A1 plasmids (WT, p.Gly143Glu, and p.Asp260fs) were co-transfected with pOG44 plasmid at a ratio of 1:10 into Flp-In™-293 cells using […] (Invitrogen, Carlsbad, Calif.). Additionally, the self-ligated pcDNA5/FRT/V5-His-TOPO® vector was included as a vector control. Twenty-four hours after transfection, cells were washed with PBS and fresh complete medium (Dulbecco's modified Eagle's medium containing 10% fetal bovine serum) was added. […]
(§2) After attaining approximately 95% confluence, cells were rinsed and harvested in PBS containing 10 mM HEPES (pH 7.4). […] The protein concentration was determined using a Pierce BCA assay kit (Rockford, Ill.).
(§3) For the study of MPH hydrolysis, the reaction was conducted in 1.5 mL eppendorf tubes with a final S9 concentration of 0.5 mg/mL at a total volume of 100 μL. […] Concentrations of the primary phase I MPH metabolite produced via hydrolysis, ritalinic acid (RA), was determined utilizing an established HPLC method described below.
(§4) Thus, following the enzymatic assay, the values determined for spontaneous PNP and RA hydrolysis were subtracted from the total PNP and RA production. […] All collected data were fit to the Michaelis-Menten equation, and kinetic parameters were calculated using nonlinear regression analysis with Graphpad Prism software (Graphpad Software Inc., San Diego, Calif.) […]

hCES1 = biological target: T2, hCES1 (Homo sapiens, UniProt P23141); details: in vitro; cited from earlier work
T2 sequence (P23141 18-567): T1 sequence (P23141 18-567)

p.Gly143Glu CES1 [2] = biological target: T3, p.Gly143Glu CES1 (Homo sapiens, UniProt P23141, G143E); experiment: MPH hydrolysis to ritalinic acid by S9 of cells expressing p.Gly143Glu CES1 (HPLC); format: biochemical; details: S9 500 μg/ml, even at very high S9 concentration (2 mg/ml); 37° C., 2 h
T3 construct: inserting a stop codon after CES1A1 gene to yield the constructs expressing CES1 without V5-His tag; expressed in transfected cells
T3 sequence (P23141 18-567 G143E/Y526T): T1 sequence (P23141 18-567) with G126E, Y509T
Description: as §1, §2, §3, §4

[3] = Pharmacokinetic study of orally administered racemic MPH in normal volunteers; format: in vivo, human; details: single oral 0.3 mg/kg racemic MPH, plasma
Description: Analysis of Pharmacokinetic, Hemodynamic, and Statistical Data. Standard pharmacokinetic analyses were applied to the MPH data using WinNonLin software (Pharsight, Mountainview, Calif.) and are described in a previous publication.^10 The AUC, Cmax, and t1/2 were analyzed using the Extreme Studentized Deviate (ESD) single-outlier procedure^12 to determine whether the parameter measurements for the slow metabolizer constituted true statistical outliers. For each parameter, the ESD procedure confirmed the measurement as an outlier at the p<0.01 level. Because this procedure is known to be conservative, the data from the aberrant metabolizer were reassessed using a similar procedure with respect to the normal participants only.

p.Asp260fs CES1 [4] = biological target: T4, p.Asp260fs CES1 (Homo sapiens, UniProt P23141); experiment: MPH hydrolysis to ritalinic acid by S9 of cells expressing p.Asp260fs CES1 (HPLC); format: biochemical; details: S9 500 μg/ml, even at very high S9 concentration (2 mg/ml); 37° C., 2 h
T4 construct: a frameshift mutation that alters residues 260-299 and causes early truncation at a premature stop codon; expressed in transfected cells
T4 sequence (P23141 with tags, fused parts or gaps): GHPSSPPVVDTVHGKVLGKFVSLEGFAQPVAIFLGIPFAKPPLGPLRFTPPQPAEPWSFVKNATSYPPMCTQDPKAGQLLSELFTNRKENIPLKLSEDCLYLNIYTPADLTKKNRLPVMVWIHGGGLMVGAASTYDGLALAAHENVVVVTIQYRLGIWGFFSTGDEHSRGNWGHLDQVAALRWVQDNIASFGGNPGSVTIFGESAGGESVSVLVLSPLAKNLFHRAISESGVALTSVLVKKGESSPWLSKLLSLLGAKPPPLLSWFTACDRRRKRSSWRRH
Description: as §1, §2, §3, §4

[5] = cited from earlier work
p.Gly143Glu CES1 [6] = biological target: T3, p.Gly143Glu CES1; experiment: PNPA hydrolysis by S9 of cells expressing p.Gly143Glu CES1; format: biochemical; details: S9 20 μg/ml, 37° C., 10 min, mean ± S.D. (n = 3)
Description: (§5) The desired plasmid was designed such that the recombinant CES1 would be expressed in mammalian cells with a V5-His tag to facilitate detection and purification. Additionally, another plasmid was generated by inserting a stop codon after CES1A1 gene to yield the constructs expressing CES1 without V5-His tag. […] Thus, only untagged CES1 and its associated mutants were used in the enzymatic hydrolysis study. Two constructs of CES1 mutations, p.Gly143Glu and p.Asp260fs, were generated using a site-directed mutagenesis assay. All constructs were subjected to DNA sequencing analysis to confirm that the desired plasmids were obtained. The identified CES1A1 plasmids (WT, p.Gly143Glu, and p.Asp260fs) were co-transfected with pOG44 plasmid at a ratio of 1:10 into Flp-In™-293 cells using […] (Invitrogen, Carlsbad, Calif.). Additionally, the self-ligated pcDNA5/FRT/V5-His-TOPO® vector was included as a vector control. Twenty-four hours after transfection, cells were washed with PBS and fresh complete medium (Dulbecco's modified Eagle's medium containing 10% fetal bovine serum) was added. Forty-eight hours after transfection, cells were split at a 1:10 ratio and cultured at 37° C. until cell attachment was observed. Culture medium was then removed and replenished with complete medium supplemented with the selecting antibiotic hygromycin B (100 μg/ml). The cell lines stably expressing WT, p.Gly143Glu, and p.Asp260fs CES1 were obtained only after a minimum 3-week selection process employing hygromycin B. Each generated cell line was identified by both expression detection and enzymatic function assays.
(§6) After attaining approximately 95% confluence, cells were rinsed and harvested in PBS containing 10 mM HEPES (pH 7.4). The cell suspension was then sonicated and the supernatant 9000 (S9) fraction was collected by centrifugation at 9000 g for 30 min at 4° C. The protein concentration was determined using a Pierce BCA assay kit (Rockford, Ill.).
(§7) The hydrolysis of PNPA was carried out in 96-well culture plates at 37° C. in a final volume of 200 μl. The S9 of cells expressing WT and mutant CES1 were diluted in reaction buffer (PBS containing 10 mM HEPES, pH 7.4) with a final S9 concentration of 20 μg/ml and preincubated at 37° C. for 10 min. […] The formation of p-nitrophenol (PNP) from PNPA was determined by the absorbance at 405 nm following incubation at 37° C. for 10 min.
(§8) Thus, following the enzymatic assay, the values determined for spontaneous PNP and RA hydrolysis were subtracted from the total PNP and RA production. […] All collected data were fit to the Michaelis-Menten equation, and kinetic parameters were calculated using nonlinear regression analysis with Graphpad Prism software (Graphpad Software Inc., San Diego, Calif.)

p.Gly143Glu CES1 [7] = biological target: T5, p.Gly143Glu CES1 (Homo sapiens, UniProt P23141, G143E/Y526T); experiment: as above; format: biochemical
T5 construct: inserting a stop codon after CES1A1 gene to yield the constructs expressing CES1 without V5-His tag; expressed in transfected cells
T5 sequence (P23141 18-567 G143E/Y526T): T1 sequence (P23141 18-567) with G126E, Y509T
Description: as §5, §6, §7, §8

[8] = Spontaneous hydrolysis in reaction buffer; format: physicochemical; details: PBS containing 10 mM HEPES, pH 7.4
Description: as §8

WT CES1 [9] = biological target: T1, WT CES1; experiment: PNPA hydrolysis by S9 of Flp-In-293 cells expressing WT CES1; format: biochemical; details: S9 20 μg/ml, 37° C., 10 min, mean ± S.D. (n = 3)
Description: The desired plasmid was designed such that the recombinant CES1 would be expressed in mammalian cells with a V5-His tag to facilitate detection and purification. Additionally, another plasmid was generated by inserting a stop codon after CES1A1 gene to yield the constructs expressing CES1 without V5-His tag. […] Thus, only untagged CES1 and its associated mutants were used in the enzymatic hydrolysis study. Two constructs of CES1 mutations, p.Gly143Glu and p.Asp260fs, were generated using a site-directed mutagenesis assay. All constructs were subjected to DNA sequencing analysis to confirm that the desired plasmids were obtained. […]
as §2
The hydrolysis of PNPA was carried out in 96-well culture plates at 37° C. in a final volume of 200 μl. […] The formation of p-nitrophenol (PNP) from PNPA was determined by the absorbance at 405 nm following incubation at 37° C. for 10 min.
Thus, following the enzymatic assay, the values determined for spontaneous PNP and RA hydrolysis were subtracted from the total PNP and RA production. […]

p.Asp260fs CES1 [10] = biological target: T4, p.Asp260fs CES1; experiment: PNPA hydrolysis by S9 of cells expressing p.Asp260fs CES1; format: biochemical
Description: as §5, §6, §7, §8

[11] = S9 20 μg/ml, 37° C., 10 min, mean ± S.D. (n = 3)

COC(=O)[C@@H](c1ccccc1)[C@@H]1CCCCN1 [l-MPH, l-threo-(S,S)-methylphenidate]
Km (WT CES1 [1]): 776 ± 162 µM
Vmax (WT CES1 [1]): 1701.0 pmole/min/mg protein and 1701.0 ± 196.5 pmole/min/mg protein
catalytic efficiency of hCES1 relative to d-MPH (hCES1): up to 6 fold
catalytic activity towards MPH hydrolysis (p.Gly143Glu CES1 [2]): failed to show any hydrolytic activity
Cmax of slow metabolizer relative to the mean of the other subjects [3]: approximately 100 fold
Cmax ([3]; slow metabolizer): 62 ng/mL
catalytic activity towards MPH hydrolysis (p.Asp260fs CES1 [4]): failed to show any hydrolytic activity
fraction of the total circulating blood concentrations of MPH ([5]; racemic MPH, enantioselective analytical methods): 1-15%
blood concentration relative to that of d-MPH ([5]; studies that measured both isomers): 1-15%
AUCinf relative to that of d-MPH ([5]; various oral formulations): 1%-15%

CC(=O)Oc1ccc([N+](=O)[O-])cc1 [PNPA, p-nitrophenyl acet]
Km (p.Gly143Glu CES1 [6]): 93.2 ± 9.8 µM
Km relative to WT (p.Gly143Glu CES1 [7]): comparable to that of WT
Vmax as percent of that of WT CES1 (p.Gly143Glu CES1 [7]): 18.6%
Vmax (p.Gly143Glu CES1 [7]; [11]): 92.0 ± 2.9 nmole/min/mg protein
stability in reaction buffer [8]: spontaneously hydrolyzed
Km (WT CES1 [9]): 107 µM
Vmax (WT CES1 [9]): 493.9 nmole/min/mg protein and 493.9 ± 14.3 nmole/min/mg protein
Km relative to WT (p.Asp260fs CES1 [10]): approximately 9.5 times
Vmax as percent of that of WT CES1 (p.Asp260fs CES1 [10]): 5.7%
Km (p.Asp260fs CES1 [10]; [11]): 950 ± 352 µM
Vmax (p.Asp260fs CES1 [10]; [11]): 28.0 ± 6.1 nmole/min/mg protein
